Where two headings read alike, the source gives them in different places. Blank lines part the entries; values can stand above or below the compound they belong to.
Columns and labels:
[1] = tested on: LPS-induced TNFα production in mouse peritoneal macrophages; experiment: LPS-induced TNFα production in mouse peritoneal macrophages (ELISA); assay type: cell-based; conditions: for IC50 / TNFα production inhibitory ability compared with butein (FIG. 1): mouse peritoneal macrophages; for IC50: 100 ng/ml LPS 24 h, measured twice, mean ± standard deviation, read-out: IC50, dose-dependent inhibition of TNFα production in macrophages; for IC50 value compared with positive control butein: TNFα production in macrophages; for TNFα production inhibitory ability compared with butein (FIG. 1): compound 20 μM, LPS-induced
Protocol: To isolate peritoneal macrophages, male Balb/c mice were intraperitoneally injected with 2 ml of 3.5% sterile thioglycolate (B D, Sparks, Md., USA) 4 days before being sacrificed. Mice were sacrificed by cervical dislocation, and peritoneal secretory cells were aseptically isolated through peritoneal washing with cold DMEM (HyClone, Logan, Utah, USA) containing 10% FBS (fetal bovine serum; HyClone) and 1% penicillin-streptomycin. After centrifugation, cells were resuspended and counted using a TC20 Cell Counter (Bio-Rad Laboratories, Hercules, Calif., USA). Peritoneal secretory cells were left in a 24-well plate overnight at 37° C., and non-adherent cells were removed. The cells were then stimulated with 100 ng/ml lipopolysaccharide (LPS) for 24 hours. The supernatant was collected during cytokine analysis, and the level of TNFα in the supernatant was measured using BD OptEIA mouse ELISA sets (BD Biosciences, San Diego, Calif., USA) according to the manufacturer's protocol. […] IC50 (μM) values were measured twice, respectively, and expressed as mean±standard deviation.

[2] = Physicochemical properties (pKa, logP, solubility)
Source text: Compound 1 is butein and the therapeutic effect on lymphedema thereof is disclosed in Korean Patent Publication No. 10-1533197 (published on Jul. 2, 2015).

[3] = Pharmacokinetic analysis in mice after I.V. and oral administration; assay type: in vivo, mouse; conditions: for BA (bioavailability): (AUCpo/AUCiv)×100; for AUC(0-inf) / Cmax: mouse, plasma; for Cmax: read-out: Cmax (maximum plasma concentration)
Protocol: Compounds were administered to 5-week-old male CD-1 mice through 1 mg/kg tail vein administration (administration volume of 5 mL/kg), 20 mg/kg oral administration, and 100 mg/kg oral administration, respectively. Three mice were used for each independent experiment. Blood samples were taken in an amount of 20 μL to 30 μL via the saphenous vein at 5, 15, 30, 60, 120, 180, 360, and 1440 minutes.
In addition, pharmacokinetic parameters were calculated from non-compartmental analysis using Win Non-lin.
In Table 3, T1/2 denotes the terminal half-life, Cmax denotes the maximum plasma concentration, AUC-O denotes the area under the plasma concentration-time curve from time zero to infinity, and indicates exposure concentration of whole blood, and BA represents bioavailability expressed as (AUCpo/AUCiv)×100. […] Cmax and AUC∞ are mean±SD values obtained from three male ICR mice. Regarding blood exposure during systemic circulation of the compound, the compound was orally administered at an amount of 100 mg/kg, and then, AUC (area under the curve) was measured, and the obtained measurements were compared.

[4] = tested on: lymphedema induced in mice; experiment: Prophylactic effect on lymphedema formation, surgically induced murine lymphedema model (volume); assay type: in vivo, mouse; conditions: 7th day after surgery, oral administration 7 days before surgery, then once every two days, vs control group
Protocol: All animal tests in the following examples were performed after obtaining approvals by the Institutional Animal Care and Use Committee (IACUC) of Sungkyunkwan University School of Medicine (Approval No.: […]-20150037). All methods were performed according to the approved guidelines. […] Briefly, major lymphatic sites including inguinal lymph nodes, popliteal lymph nodes, deep inguinal lymph nodes and femoral lymphatic vessels were removed, and the lower right leg of the mouse was limitedly cauterized under anesthesia.
Compounds 1, 7m, and 14a were each orally administered to mice for 7 days before surgical induction of lymphedema in mice.
On the other hand, in the control group, the compound 1 treatment group, the compound 7m treatment group, and the compound 14a treatment group, lymphedema was induced through surgery. After surgery, the compounds were administered once every two days.
The volume of lymphedema was measured on the 7th day after surgery, and the size of the lymphedema was recorded using a caliper ruler by a person who was blinded to the treatment status of the mice.

lymphedema tissue = experiment: Histological (H&E) analysis of lymphedema tissue of the right hind leg; assay type: in vivo; conditions: 7th day after surgery, right hind leg of mouse
Source text: (§1) Tissue samples were collected on the 7th day after surgery to induce lymphedema at a location 15 mm-25 mm from the right leg of the mouse. The harvested tissue samples were fixed with 10% formalin solution, and the specimens were cut to a thickness of 5 μm. Sections were deparaffinized in 100% xylene, rehydrated with a series of 100% ethanol, 95% ethanol, 90% ethanol, 80% ethanol, and 70% ethanol, and washed with water. Sections were reacted with hematoxylin solution at room temperature. After washing in PBS, sections were stained with eosin at room temperature. Images were acquired by a Pannoramic viewer microscope (3[…] Ltd., Hungary). Prepared slides were incubated using anti-mouse PPARγ (Santa Cruz Biotechnology, USA) and Alexa Fluor 488 and DAPI (Life Technologies, USA). Samples were analyzed using a Nikon ECLIPSE 80i microscope (Nikon Instruments Inc., Japan).
In FIG. 3A, the scale bar of the upper panel is 500 μm, and the scale bar of the lower panel is 100 μm.
In FIG. 4A, the scale bar of the upper panel is 200 μm, and the scale bar of the lower panel is 100 μm.

TNFα = experiment: mRNA expression of TNFα in lymphedema tissue; assay type: in vivo; conditions: 7th day after surgery, mouse
Source text: As a result, it was confirmed that the expression level of TNFα mRNA was decreased in the compound 1 treatment group and the compound 14a treatment group (with respect to the control group, *: P<0.05; with respect to compound 1, #: P<0.05).

PPARγ = experiment: Immunofluorescence staining of PPARγ in epidermal layer of lymphedema tissue; assay type: in vivo; conditions: mouse
Source text: as §1
In addition, peroxisome […] (PPARγ) is a major regulator of lipogenesis, and as shown in FIG. 4B showing the results of immunofluorescence staining, the distribution of PPARγ in the epidermal layer of lymphedema tissue after treatment with compound 1 and compound 14a was suppressed.

[5] = tested on: PPARγ and a target protein Fabp4; experiment: Expression of PPARγ and Fabp4 in lymphedema tissue (western blot, mRNA); assay type: in vivo; conditions: mouse
[6] = Mus musculus, Peritoneal macrophage, 24 h
[7] = water solubility, read-out: Solubility
[8] = po, P.O, 20 mg/Kg, male CD-1 mice

SMILES: O=C(/C=C/c1ccc(O)c(O)c1)c1ccc(O)cc1F [7g, (E)-3-(3,4-dihydroxyphenyl)-1-(2-fluoro-4-hydroxyphenyl)prop-2-en-1-one]
melting point: 207.8 °C

SMILES: O=C(/C=C/c1ccc(F)c(O)c1)c1ccc(O)cc1O [7d, (E)-1-(2,4-dihydroxyphenyl)-3-(4-fluoro-3-hydroxyphenyl)prop-2-en-1-one]
melting point: 252.4 °C

SMILES: O=C(/C=C/c1ccc(O)c(O)c1)c1ccc(O)cc1O [compound 1, (E)-1-(2,4-dihydroxyphenyl)-3-(3,4-dihydroxyphenyl)prop-2-en-1-one, reference compound]
IC50 [1, 6]: 43 µM
inhibition at 20 µM ([1]; Mus musculus, Peritoneal macrophage, treated in vitro at 20 μM, read-out: efficacy (inhibition)): 10%
IC50 [1]: 43.3 ± 1.72 µM
logP (partition coefficient) [2]: 0.42
solubility [2, 7]: 21 µg/mL
solubility ([2]; water, read-out: water solubility): 79 µM
Cmax (maximum plasma concentration) ([3]; I.V, 1 mg/Kg, male CD-1 mice): 41 ng/mL
Tmax ([3]; I.V, 1 mg/Kg, male CD-1 mice): 6 min
Tmax ([3]; P.O, 20 mg/Kg, male CD-1 mice): 18 min
BA (bioavailability) ([3]; P.O, 20 mg/Kg, male CD-1 mice): 15%
Tmax ([3]; P.O, 100 mg/Kg, male CD-1 mice): 18 min
BA (bioavailability) ([3]; P.O, 100 mg/Kg, male CD-1 mice): 37%
terminal half-life ([3]; mice): too short terminal half-life
AUC(0-inf) ([3]; iv, I.V, 1 mg/Kg, male CD-1 mice): 6.7 ng·h/mL
AUC(0-inf) [3, 8]: 21 ng·h/mL
Cmax [3, 8]: 43 ng/mL
Cmax ([3]; po, P.O, 100 mg/Kg, male CD-1 mice): 601 ng/mL
volume of lymphedema reduced by [4]: 52%
development of adipose tissue in the epidermal layer (H&E, FIG. 4A) (lymphedema tissue): inhibiting the development of adipose tissue in the epidermal layer
expression level of TNFα mRNA in lymphedema tissue (FIG. 3B) (TNFα): decreased
distribution of PPARγ in the epidermal layer of lymphedema tissue (FIG. 4B) (PPARγ): suppressed
levels of PPARγ and Fabp4 mRNA (FIG. 4D) ([5]; lymphedema tissue): superior efficacy compared to the control group
expression of PPARγ and Fabp4 in lymphedema tissue (western blot, FIG. 4C) [5]: reduced the expression of PPARγ

SMILES: Cc1cc(O)ccc1C(=O)/C=C/c1ccc(O)c(O)c1 [compound 7h, (E)-3-(3,4-dihydroxyphenyl)-1-(4-hydroxy-2-methylphenyl)prop-2-en-1-one]
IC50 [1, 6]: 48.4 ± 2.35 µM
melting point: 208.2 °C

SMILES: CC(=O)Oc1ccc(C(=O)/C=C/c2ccc(OC(C)=O)c(OC(C)=O)c2)c(OC(C)=O)c1 [compound 8a, (E)-4-(3-(2,4-diacetoxyphenyl)-3-oxoprop-1-en-1-yl)-1,2-phenylene diacetate]
IC50 [1, 6]: 12.8 ± 1.24 µM
IC50 value compared with positive control butein [1]: significantly superior IC50 values compared to butein
TNFα production inhibitory ability compared with butein (FIG. 1) [1]: significantly better TNFα production inhibitory ability than the positive control butein treatment group
melting point: 131.3 °C

SMILES: COc1ccc(/C=C/C(=O)c2ccc(O)cc2O)cc1O [7b, (E)-1-(2,4-dihydroxyphenyl)-3-(3-hydroxy-4-methoxyphenyl)prop-2-en-1-one]
melting point: 206.4 °C

SMILES: Cc1ccc(C(=O)/C=C/c2ccc(O)c(O)c2)cc1 [compound 7l, (E)-3-(3,4-dihydroxyphenyl)-1-(p-tolyl)prop-2-en-1-one]
IC50 [1, 6]: 18.6 ± 1.5 µM
IC50 value compared with positive control butein [1]: significantly superior IC50 values compared to butein
melting point: 190.9 °C

SMILES: O=C(Oc1ccc(C(=O)/C=C/c2ccc(OC(=O)c3ccccc3)c(OC(=O)c3ccccc3)c2)c(OC(=O)c2ccccc2)c1)c1ccccc1 [compound 8b, (E)-4-(3-(2,4-bis(benzoyloxy)phenyl)-3-oxoprop-1-en-1-yl)-1,2-phenylene dibenzoate]
TNFα production inhibitory ability compared with butein (FIG. 1) [1]: significantly better TNFα production inhibitory ability than the positive control butein treatment group
melting point: 36.7 °C

SMILES: O=C(/C=C/c1ccc(O)c(O)c1)c1ccc(Cl)cc1 [compound 7m, (E)-1-(4-chlorophenyl)-3-(3,4-dihydroxyphenyl)prop-2-en-1-one]
IC50 [1, 6]: 17.3 ± 2.11 µM
IC50 value compared with positive control butein [1]: significantly superior IC50 values compared to butein
logP (partition coefficient) [2]: 3.77
solubility [2, 7]: 28 µg/mL
volume of lymphedema reduced by [4]: 53%

The remaining lines, values ahead:

IC50 [1, 6]: 20.8 ± 1.62 µM
melting point: 161.1 °C
SMILES: COc1ccc(C(=O)Oc2cc(O)ccc2C(=O)/C=C/c2ccc(O)c(O)c2)cc1 [compound 14c, (E)-2-(3-(3,4-dihydroxyphenyl)acryloyl)-5-hydroxyphenyl 4-methoxybenzoate]

melting point: 80.4 °C
SMILES: CC(C)Oc1cc(O)ccc1C(=O)/C=C/c1ccc(O)c(O)c1 [7j, (E)-3-(3,4-dihydroxyphenyl)-1-(4-hydroxy-2-isopropoxyphenyl)prop-2-en-1-one]

melting point: 162.9 °C
SMILES: COc1ccc(C(=O)/C=C/c2ccc(O)c(O)c2)c(OC)c1 [7k, (E)-3-(3,4-dihydroxyphenyl)-1-(2,4-dimethoxyphenyl)prop-2-en-1-one]

melting point: 102.8 °C
SMILES: O=C(Oc1cc(O)ccc1C(=O)/C=C/c1ccc(O)c(O)c1)c1ccc(Cl)cc1 [compound 14d]

IC50 [1, 6]: 18.9 ± 1.15 µM
melting point: 185.7 °C
SMILES: Cc1ccc(C(=O)Oc2cc(O)ccc2C(=O)/C=C/c2ccc(O)c(O)c2)cc1 [compound 14b, (E)-2-(3-(3,4-dihydroxyphenyl)acryloyl)-5-hydroxyphenyl 4-methylbenzoate]

From patent US20230099567A1, “COMPOSITION FOR TREATMENT, PREVENTION, OR AMELIORATION OF LYMPHEDEMA” (RAPPELER CO., LTD., priority 2020, published 2023)
